# From patent publication US10286092B2, “Detecting a therapeutic cell” (UCL Business PLC, priority 2015, dated 2019)
# “And” between values parts separate entries of the source, which are not always exact repeats. Identical values can stand only once. “Also recorded” adds a separate entry of the source.
# Columns and labels:
# [1] = target: T1, hDAT (Homo sapiens, UniProt Q01959); assay: In vitro radiosubstrate binding assay, hDAT expressing T-cells
# T1 construct: expressed in transfected cells; host or cells: SupT1 human T-cell line, retrovirally transduced with SFG.hDAT.I.CD34 (co-transduced with FLuc for in vivo work)
# Description: (§1) Reporter protein binding capabilities was assessed in a method previously described. Briefly, 1×10^6 all hDAT expressing T-cells and the non-transduced control cells were incubated at 37° C. with 7.4 kBq ^123I-FP-CIT (GE, Healthcare) for 30 mins. At each time point, cells were rapidly washed twice with 500 μL ice-cold PBS and the supernatant collected. Cell pellets were re-suspended in 1 mL PBS. ^123I-FP-CIT binding in cells and medium was measured using a gamma counter (WIZARD^2, PerkinElmer, UK). To determine the non-specific binding of the ^123I-FP-CIT in hDAT (+) cells, transduced cells and non-transduced cells were incubated with 50 μM of β-CIT-FP (ABX) for 5 min. ^123I-FP-CIT cells were subsequently prepared for gamma counting as mentioned above. All experiments were performed in triplicates and repeated ≥twice. All results are given as mean±standard deviation of the mean (SD). The data was analysed using one way analysis of variance (ANOVA) followed by the Tukey's HSD test with the IBM SPSS software.
# [2] = target: T2, DAT (Mus musculus, UniProt Q61327); assay: SPECT/CT imaging of striatum (endogenous DAT) in NSG mice; format: in vivo; conditions: NSG mice n=4
# T2 construct: the striatum (region with high endogenous expression of DAT); from tissue; host or cells: striatum of living NSG mice (in vivo SPECT)
# T2 sequence (Q61327 whole entry): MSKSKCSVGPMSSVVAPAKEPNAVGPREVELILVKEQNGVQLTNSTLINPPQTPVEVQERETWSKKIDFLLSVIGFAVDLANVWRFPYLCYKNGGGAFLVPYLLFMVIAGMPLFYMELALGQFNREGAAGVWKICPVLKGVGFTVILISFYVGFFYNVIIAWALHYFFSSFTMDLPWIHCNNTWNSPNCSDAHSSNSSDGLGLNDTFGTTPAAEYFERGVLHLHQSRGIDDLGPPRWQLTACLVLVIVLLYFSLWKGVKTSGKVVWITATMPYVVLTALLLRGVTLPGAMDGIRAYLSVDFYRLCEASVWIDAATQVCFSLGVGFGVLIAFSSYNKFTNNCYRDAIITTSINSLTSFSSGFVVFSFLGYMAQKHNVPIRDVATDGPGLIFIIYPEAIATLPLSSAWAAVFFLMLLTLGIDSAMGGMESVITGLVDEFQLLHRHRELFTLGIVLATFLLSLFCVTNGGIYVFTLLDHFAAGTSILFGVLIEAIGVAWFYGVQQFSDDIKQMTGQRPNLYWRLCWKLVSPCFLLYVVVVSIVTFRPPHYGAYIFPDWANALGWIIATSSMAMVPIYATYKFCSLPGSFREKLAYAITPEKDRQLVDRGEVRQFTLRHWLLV
# Description: (§2) Animals were administered with 1.5 mmol/kg of the thyroid blocking agent potassium perchlorate (Sigma Aldrich, USA) intraperitoneally one hour prior to imaging. Animals were imaged with a NanoSPECT/CT small animal in vivo scanner (Mediso, Hungary) consisting of a rotating double headed camera (company, country). 1.2 mm pinhole mouse apertures were used. Imaging was performed under isoflurane (1.5-2%) and the body temperature was maintained at 37° C. using a heated animal bed (Minerve, France). For the kinetic study, animals were administered with an average of 17.25±1.22 MBq of ^123I-FP-CIT i.v. and 15 min. brain scans were acquired day 25 post tumour inoculation at 15 min. 2 h, 4 h, 6 h and 8 h. Images were reconstructed using HiSPECT software (InviCRO, USA) and image processing analysis was performed (VivoQuant Software; InviCRO, USA).
# Time activity profiles were generated evaluate the hDAT reporter system in vivo. […] The percentage in injected dose per mm^3 (% ID/mm^3) was calculated by; injected dose (MBq)/counts in the whole body (MBq)/volume of the ROI (mm^3) to determine the peak uptake time and the optimum imaging window. […] The binding ratios were calculated by determining the mean counts per pixel in the specific region (hDAT expressing xenograft for the hDAT: cerebellum and hDAT: striatum ratios) divided by the mean counts per pixel in the nonspecific region.
# [3] = test system: control non-transduced (NT) SupT1 cells; assay: In vitro radiosubstrate binding assay, non-transduced control cells; parameters: species or system human; conditions: 7.4 kBq, 37° C., 30 min
# Description: as §1
# [4] = test system: non-transduced SupT1 cells; assay: SPECT imaging of control animals injected with non-transduced SupT1 cells; format: in vivo, mouse; conditions: intracranially injected non-transduced SupT1 cells
# Description: as §2
# [5] = target: T1, hDAT; assay: SPECT/CT imaging of hDAT-positive brain xenografts in NSG mice; format: in vivo; conditions: for specific to non-specific binding ratio hDAT: cerebellum: NSG mice n=4
# Description: All animal procedures were carried out in accordance with the UK Animals (Scientific Procedures) 1986 Act and institutional ethics regulation. NSG mice were bred in-house and kept according to institutional guidelines. Male mice 6-10 weeks old were injected with 2 mg/kg body weight of 5% carprofen (Norbrook) and anaesthetised with 3-5% Isoflurane (ABBOTT, UK) in an induction chamber. Animals were placed in a stereotactic frame (David Kopf Instruments) with an anaesthesia head holder to deliver 3% isoflurane. A sagittal incision over the parieto-occipital bone using a sterile scalpel (Swann Morton Ltd) was made and a blunt ended Hamilton (75N, 26s/2″/2′5 ul) syringe with SupT1/hDAT.I.CD34 was placed 1.5 mm lateral and 1 mm anterior of bregma. The needle was lowered 4 mm in the brain through a burr hole and retracted 1 mm to create a small reservoir where the cells (1×10^4 in a 3 μl volume) were injected.
# as §2
# Time activity profiles were generated evaluate the hDAT reporter system in vivo. Regions of interest (ROIs) for the hDAT expressing xenografts, cerebellum (chose background region) and striatum were drawn on the SPECT/MR/CT coregistered data. The percentage in injected dose per mm^3 (% ID/mm^3) was calculated by; injected dose (MBq)/counts in the whole body (MBq)/volume of the ROI (mm^3) to determine the peak uptake time and the optimum imaging window. A method based on the striatal binding ratio was utilised to determine specific-to-nondisplaceable binding ratios previously described as indicative of the binding potential at the time of binding equilibrium^6,7. The binding ratios were calculated by determining the mean counts per pixel in the specific region (hDAT expressing xenograft for the hDAT: cerebellum and hDAT: striatum ratios) divided by the mean counts per pixel in the nonspecific region.
# [6] = target: T1, hDAT; assay: PET/CT imaging of hDAT positive cells in mouse brain; format: in vivo; conditions: i.v.
# Description: Animals were administered with 1.5 mmol/kg of the thyroid blocking agent potassium perchlorate (Sigma Aldrich, USA) intraperitoneally one hour prior to imaging. Animals were imaged with a PET/CT small animal in vivo scanner (Mediso, Hungary). Imaging was performed under isoflurane (1.5-2%) and the body temperature was maintained at 37° C. using a heated animal bed (Minerve, France). Four weeks post tumour inoculation, animals were administered with 5 MBq of ^18F-FP-CIT i.v. and brain scans were acquired 30 min post injection. A high-resolution CT was acquired immediately following […] imaging. Images were reconstructed using HiSPECT software (InviCRO, USA) and image processing analysis was performed (VivoQuant Software; InviCRO, USA).
# [7] = Binding of 123I-FP-CIT by hDAT and hDAT variant proteins from different constructs; conditions: for binding of [123I]-FP-CIT by hDAT variant: compared to wild-type hDAT, FIG. 7
# Description: as §1
# [8] = after 4 h post i.v. injection (constant)
molecule,measurement,setting,value
COC(=O)[C@H]1[C@@H](c2ccc(I)cc2)C[C@@H]2CC[C@H]1N2CCCF [[I]-FP-CIT],% [123I]-FP-CIT binding in the presence of [I]-FP-CIT,"[1]; SupT1/SFG.hDAT.I.CD34 cells co-incubated with cold compound, 50 μM",1.10±0.22%
same,fold reduction of [123I]-FP-CIT binding in the presence of [I]-FP-CIT,"[1]; SupT1/SFG.hDAT.I.CD34 cells, cold compound 50 μM, p<0.001",32 fold
same,inhibition of [123I]-FP-CIT binding by cold compound (in words),"[1]; hDAT positive T-cells, co-incubation with cold compound 50 μM",complete binding inhibition; also recorded: completely abolished
"COC(=O)[C@H]1[C@@H](c2ccc(I)cc2)C[C@@H]2CC[C@H]1N2CCCF [[^123I]-FP-CIT, [I-^123] N-ω-fluoropropyl-2β-carbomethoxy-3β-(4-iodophenyl) nortropane]",percentage [123I]-FP-CIT binding,"[1]; SupT1/SFG.hDAT.I.CD34 cells, 7.4 kBq, 37° C., 30 min",35.10±5.24%
same,fold greater % [123I]-FP-CIT binding in SupT1/SFG.hDAT.I.CD34 compared to control cells,[1]; hDAT cells vs non-transduced SupT1 cells,25 fold and 27 fold
same,specific to non-specific binding ratio striatum: cerebellum,[2]; 2 h post i.v. injection (peak),6.56±2.40
same,specific to non-specific binding ratio striatum: cerebellum,[2]; [8],4.08±0.60
same,percentage [123I]-FP-CIT binding,[3],1.41±0.40%
same,SPECT signal in control animals,[4],non-detectable
same,specific to non-specific binding ratio hDAT: cerebellum,[5]; 2 h post i.v. injection (peak),5.73±1.75
same,optimum imaging time post injection,"[5]; SupT1/SFG.hDAT.I.CD34 xenografts, SPECT",2 h
same,specific to non-specific binding ratio hDAT: cerebellum,[5]; [8],4.09±0.38
same,co-localisation of SPECT signal with MR contrast at xenograft site,"[5]; co-registered SPECT-MR-CT, 2 h post i.v. injection",good co-localisation; also recorded: good correlation
same,time post radiotracer injection at which hDAT-positive xenografts were visualised by SPECT,"[5]; dynamic SPECT at 15 min, 2 h, 4 h, 6 h",as early as 15 min and up to 6 hr
"COC(=O)[C@H]1[C@@H](c2ccc(I)cc2)C[C@@H]2CC[C@H]1N2CCC[18F] [^18F-FP-CIT, [^18F] fluoropropyl-carbomethoxy-iodophenyl-nortropane]",detection of hDAT positive cells by PET/CT,[6],could also be detected
RQR8-hDAT: hDAT tagged with RQR8,binding of [123I]-FP-CIT by hDAT variant,[7],increased levels
"hDAToptD313N: hDAT including a D313N mutation (protein, UniProt Q01959 1-620, looked up, variant D313N) Sodium-dependent dopamine …: MSKSKCSVGLMSSVVAPAKEPNAVGPKEVELILVKEQNGVQLTSSTLTNPRQSPVEAQDRETWGKKIDFLLSVIGFAVDLANVWRFPYLCYKNGGGAFLVPYLLFMVIAGMPLFYMELALGQFNREGAAGVWKICPILKGVGFTVILISLYVGFFYNVIIAWALHYLFSSFTTELPWIHCNNSWNSPNCSDAHPGDSSGDSSGLNDTFGTTPAAEYFERGVLHLHQSHGIDDLGPPRWQLTACLVLVIVLLYFSLWKGVKTSGKVVWITATMPYVVLTALLLRGVTLPGAIDGIRAYLSVDFYRLCEASVWINAATQVCFSLGVGFGVLIAFSSYNKFTNNCYRDAIVTTSINSLTSFSSGFVVFSFLGYMAQKHSVPIGDVAKDGPGLIFIIYPEAIATLPLSSAWAVVFFIMLLTLGIDSAMGGMESVITGLIDEFQLLHRHRELFTLFIVLATFLLSLFCVTNGGIYVFTLLDHFAAGTSILFGVLIEAIGVAWFYGVGQFSDDIQQMTGQRPSLYWRLCWKLVSPCFLLFVVVVSIVTFRPPHYGAYIFPDWANALGWVIATSSMAMVPIYAAYKFCSLPGSFREKLAYAIAPEKDRELVDRGEVRQFTLRHWLKV",binding of [123I]-FP-CIT by hDAT variant,[7],increased levels
"hDAT: human dopamine transporter expressed from tricistronic construct RQR8.2A.aCD19.2A.hDAT_opt (protein, hDAT protein sequence) MSKSKCSVGLMSSVVAPAKEPNAVGPKEVELILVKEQNGVQLTSSTLTNPRQSPVEAQDRETWGKKIDFLLSVIGFAVDLANVWRFPYLCYKNGGGAFLVPYLLFMVIAGMPLFYMELALGQFNREGAAGVWKICPILKGVGFTVILISLYVGFFYNVIIAWALHYLFSSFTTELPWIHCNNSWNSPNCSDAHPGDSSGDSSGLNDTFGTTPAAEYFERGVLHLHQSHGIDDLGPPRWQLTACLVLVIVLLYFSLWKGVKTSGKVVWITATMPYVVLTALLLRGVTLPGAIDGIRAYLSVDFYRLCEASVWIDAATQVCFSLGVGFGVLIAFSSYNKFTNNCYRDAIVTTSINSLTSFSSGFVVFSFLGYMAQKHSVPIGDVAKDGPGLIFIIYPEAIATLPLSSAWAVVFFIMLLTLGIDSAMGGMESVITGLIDEFQLLHRHRELFTLFIVLATFLLSLFCVTNGGIYVFTLLDHFAAGTSILFGVLIEAIGVAWFYGVGQFSDDIQQMTGQRPSLYWRLCWKLVSPCFLLFVVVVSIVTFRPPHYGAYIFPDWANALGWVIATSSMAMVPIYAAYKFCSLPGSFREKLAYAIAPEKDRELVDRGEVRQFTLRHWLKV",binding of [123I]-FP-CIT by hDAT co-expressed with CD19 CAR,"[7]; hDAT expressed from CD19 CAR-hDAT tricistronic construct, FIG. 8C",able to bind
"dhDATopt: truncated hDAT, probably lacking the 49 N-terminal amino acids compared to wild-type hDAT (protein, dhDATopt_d protein sequence, truncated hDAT, probably lacking the 49 N-terminal amino acids compared to wild-type hDAT) MSKSKCSVGLMSSVVAPAKEPNAVGPKEVELILVKEQNGVQLTSSTLTNPRQSPVEAQDRETWGKKIDFLLSVIGFAVDLANVWRFPYLCYKNGGGAFLVPYLLFMVIAGMPLFYMELALGQFNREGAAGVWKICPILKGVGFTVILISLYVGFFYNVIIAWALHYLFSSFTTELPWIHCNNSWNSPNCSDAHPGDSSGDSSGLNDTFGTTPAAEYFERGVLHLHQSHGIDDLGPPRWQLTACLVLVIVLLYFSLWKGVKTSGKVVWITATMPYVVLTALLLRGVTLPGAIDGIRAYLSVDFYRLCEASVWIDAATQVCFSLGVGFGVLIAFSSYNKFTNNCYRDAIVTTSINSLTSFSSGFVVFSFLGYMAQKHSVPIGDVAKDGPGLIFIIYPEAIATLPLSSAWAVVFFIMLLTLGIDSAMGGMESVITGLIDEFQLLHRHRELFTLFIVLATFLLSLFCVTNGGIYVFTLLDHFAAGTSILFGVLIEAIGVAWFYGVGQFSDDIQQMTGQRPSLYWRLCWKLVSPCFLLFVVVVSIVTFRPPHYGAYIFPDWANALGWVIATSSMAMVPIYAAYKFCSLPGSFREKLAYAIAPEKDRE",binding of [123I]-FP-CIT by hDAT variant,[7],able to bind
